# Reference: article PMC10307939 (Pharmacology Research & Perspectives, 2023)
# “Also recorded” adds a separate entry of the source. Structures can show the parent of a compound that is named as a salt.
# What was measured:
# male and female ICR mice [1] = test: Horizontal locomotor activity, 60‐min session; format: in vivo, mouse; conditions: for Effect on locomotor activity: SC, drug alone; for Emax / ED50: Mus musculus, sc; for Emax: 1 h, read-out: E max (95%CL), % Methadone E max; for ED50: read-out: ED50 (95% CL)
# [2] = target: T1, mouse kappa opioid receptor (Mus musculus, UniProt P33534); test: Radioligand competition binding, mKOR‐CHO membranes; conditions: for MOR/KOR (fold selectivity for MOR over KOR): K i at KOR divided by K i at MOR
# [3] = target: T2, human delta‐opioid receptor (Homo sapiens, UniProt P41143); test: Radioligand competition binding, hDOR‐CHO membranes; conditions: for MOR/DOR (fold selectivity for MOR over DOR): K i at DOR divided by K i at MOR
# male and female ICR mice [4] = test: Naltrexone antagonism of test‐drug locomotor activation; format: in vivo, mouse; conditions: 1.0 mg/kg naltrexone SC 10 min before test drug
# [5] = target: T2, human delta‐opioid receptor; test: Ligand‐stimulated [35S]GTPγS binding, hDOR‐CHO membranes; format: biochemical; conditions: for Emax: read-out: DOR E max
# [6] = target: T1, mouse kappa opioid receptor; test: biochemical; format: biochemical; conditions: for Emax: read-out: KOR E max
# mouse mu‐opioid receptor [7] = target: T3, mouse mu‐opioid receptor (Mus musculus, UniProt P42866); test: Ligand‐stimulated [35S]GTPγS binding, mMOR‐CHO membranes; format: biochemical; conditions: for Emax: read-out: MOR E max
# mouse mu‐opioid receptor [8] = target: T3, mouse mu‐opioid receptor; test: Radioligand competition binding, mMOR‐CHO membranes; conditions: for Ki: MOR K i, [3H]naloxone, mMOR‐CHO membranes, mean ± SEM (n = 3–6)
# male and female ICR mice [9] = test: Test‐drug antagonism of morphine locomotor activation; format: in vivo, mouse; conditions: test drug SC 10 min before 32 mg/kg SC morphine
SMILES,Ki [2] [nM],MOR/KOR (fold selectivity for MOR over KOR) [2] [fold],Ki [3] [nM],MOR/DOR (fold selectivity for MOR over DOR) [3] [fold],Emax (male and female ICR mice [1]) [%],ED50 (male and female ICR mice [1]) [mg/kg],Effect of naltrexone pretreatment on locomotor‐activating dose of test drug (male and female ICR mice [4]),EC50 [5] [nM],Emax [5] [%],KOR E max [6],EC50 (mouse mu‐opioid receptor [7]) [nM],Emax (mouse mu‐opioid receptor [7]) [%],Ki (mouse mu‐opioid receptor [8]) [nM],also measured
"CCC(=O)C(CC(C)N(C)C)(c1ccccc1)c1ccccc1 (racemic) [Methadone, (±) Methadone HCl, reference compound]",–,–,–,–,–,–,–,–,–,–,–,–,–,"Total locomotor counts (male and female ICR mice [1]; 32 mg/kg SC, 60‐min session): 7500.1 counts; Mean maximum increase in locomotor counts (male and female ICR mice [1]; 32 mg/kg vs. saline vehicle): 5149.8 counts; Effect on locomotor activity (male and female ICR mice [1]): dose‐dependent increase in locomotor activity"
"C=C[C@@H]1[C@H]2CCC[C@]1(c1cccc(O)c1)CCN2CCc1ccccc1 [DC‐1‐76.1, 3‐((1R,5S,9S)‐2‐phenethyl‐9‐vinyl‐2‐azabicyclo[3.3.1]nonan‐5‐yl)phenol]",52.9 ± 1.11,27.7,3390 ± 268,1773.3,34.3,0.72,significantly attenuated,1160 ± 214,-0.7 ± 2.12,No stim,–,–,–,–
"C=C[C@H]1[C@H]2CCC[C@]1(c1cccc(O)c1)CCN2CCc1ccccc1 [DC‐1‐76.2, 3‐((1R,5S,9R)‐2‐phenethyl‐9‐vinyl‐2‐azabicyclo[3.3.1]nonan‐5‐yl)phenol]",44 ± 2.98,88.5,347 ± 45.6,698.5,87.6,0.47,significantly attenuated,160 ± 142,-6.34 ± 0.78,No stim,–,–,–,–
"C/C=C\[C@H]1[C@H]2CCC[C@]1(c1cccc(O)c1)CCN2CCc1ccccc1 [DC‐1‐90.2, 3‐((1R,5S,9R)‐2‐phenethyl‐9‐((Z)‐prop‐1‐en‐1‐yl)‐2‐azabicyclo[3.3.1]nonan‐5‐yl)phenol]",34.5 ± 0.77,18.8,430 ± 41.7,235.0,–,–,–,253 ± 133,-6.97 ± 0.46,No stim,–,–,–,–
"C/C=C\[C@@H]1[C@H]2CCC[C@]1(c1cccc(O)c1)CCN2CCc1ccccc1 [DC‐1‐128.1, 3‐((1R,5S,9S)‐2‐phenethyl‐9‐((Z)‐prop‐1‐en‐1‐yl)‐2‐azabicyclo [3.3.1]nonan‐5‐yl)phenol]",63.3 ± 7.43,112.6,318 ± 47,565.2,80.1,0.19,significantly attenuated,503 ± 118,31.4 ± 2.23,no KOR activation; also recorded: No stim,–,–,–,"Fold difference in [35S]GTPγS potency, MOR versus DOR ([5]; higher potency at MOR than at DOR): more than 60 fold"
"CCC[C@H]1[C@@H]2CCC[C@@]1(c1cccc(O)c1)CCN2CCc1ccccc1 [EG‐1‐203, 3‐((1S,5R,9R)‐2‐phenethyl‐9‐propyl‐2‐azabicyclo[3.3.1]nonan‐5‐yl)phenol]",22.3 ± 4.66,29.3,66.5 ± 7.7,87.4,13,5.42,–,37 ± 17.7,-11.6 ± 3.08,–,24.2 ± 13.8,4.79 ± 0.6,0.761 ± 0.031,Effect of test‐drug pretreatment on locomotor‐activating effects of morphine (male and female ICR mice [9]): significantly attenuated; EC50 [6]: 125 ± 88.7 nM; Emax [6]: -3.49 ± 0.67%
"OC/C=C/[C@H]1[C@@H]2CCC[C@@]1(c1cccc(O)c1)CCN2CCc1ccccc1 [EG‐1‐230, 3‐((1S,5R,9R)‐9‐((E)‐3‐hydroxyprop‐1‐en‐1‐yl)‐2‐phenethyl‐2‐azabicyclo[3.3.1]nonan‐5‐yl)phenol]",45.9 ± 7.08,10.9,1010 ± 147,238.5,2.2,–,–,517 ± 366,-10.6 ± 3.58,–,24.1 ± 12,0.67 ± 0.79,4.22 ± 0.177,Effect on locomotor activity (male and female ICR mice [1]): inactive when administered alone; Effect of test‐drug pretreatment on locomotor‐activating effects of morphine (male and female ICR mice [9]): significantly attenuated; EC50 [6]: 20.7 ± 5.6 nM; Emax [6]: -3.97 ± 0.65%
"OCC[C@H]1[C@@H]2CCC[C@@]1(c1cccc(O)c1)CCN2CCc1ccccc1 [JL‐2‐39, 3‐((1S,5R,9R)‐9‐(2‐hydroxyethyl)‐2‐phenethyl‐2‐azabicyclo[3.3.1]nonan‐5‐yl)phenol]",17.1 ± 2.22,43.4,473 ± 41.2,1199.2,87.1,2.85,significantly attenuated,–,–,No stim,7.09 ± 3.7,13 ± 1.48,0.394 ± 0.035,"Fold more potent than DC‐1‐76.1 in vitro ([35S]GTPɣS binding, MOR CHO cells) (mouse mu‐opioid receptor [7]; relative to DC‐1‐76.1): ~ 5 fold; Fold higher MOR affinity than DC‐1‐76.1 (mouse mu‐opioid receptor [8]; relative to DC‐1‐76.1): ~ 5 fold; Fold less potent than DC‐1‐76.1 in vivo (locomotor activity) (male and female ICR mice [1]; relative to DC‐1‐76.1): ~ 4 fold"
"CN1c2ccccc2C(NCCCCCCC(=O)O)c2ccc(Cl)cc2S1(=O)=O (centres unmarked) [Tianeptine, reference compound]",–,–,2830 ± 416,–,–,–,significantly attenuated,–,–,No stim,6440 ± 622,110 ± 3.6,78.2 ± 9.93,–
